What was measured:
BACE1 enzyme = BACE1 enzyme (Homo sapiens, UniProt P56817); experiment: BACE1 enzyme inhibition, Ki from kinetic data under tight-binding conditions; assay type: biochemical
BACE2 enzyme = molecular target: T1, BACE2 enzyme (Homo sapiens, UniProt Q9Y5Z0); experiment: BACE2 enzyme inhibition, Ki from kinetic data under tight-binding conditions; assay type: biochemical; settings: Ki (nM) BACE2, Table 3
T1 sequence (Q9Y5Z0 63-518): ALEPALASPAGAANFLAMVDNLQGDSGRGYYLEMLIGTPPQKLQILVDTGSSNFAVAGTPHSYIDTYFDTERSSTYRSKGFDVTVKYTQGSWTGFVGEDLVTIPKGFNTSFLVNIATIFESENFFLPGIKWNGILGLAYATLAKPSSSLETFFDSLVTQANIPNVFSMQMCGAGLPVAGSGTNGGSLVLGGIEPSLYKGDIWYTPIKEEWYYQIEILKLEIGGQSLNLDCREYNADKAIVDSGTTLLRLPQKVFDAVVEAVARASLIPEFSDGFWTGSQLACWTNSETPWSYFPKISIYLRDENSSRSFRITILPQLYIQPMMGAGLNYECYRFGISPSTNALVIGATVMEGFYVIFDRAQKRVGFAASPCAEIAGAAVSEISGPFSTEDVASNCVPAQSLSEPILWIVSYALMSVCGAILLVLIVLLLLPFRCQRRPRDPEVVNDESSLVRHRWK

Chain of BACE1 enzyme (P56817 46-501): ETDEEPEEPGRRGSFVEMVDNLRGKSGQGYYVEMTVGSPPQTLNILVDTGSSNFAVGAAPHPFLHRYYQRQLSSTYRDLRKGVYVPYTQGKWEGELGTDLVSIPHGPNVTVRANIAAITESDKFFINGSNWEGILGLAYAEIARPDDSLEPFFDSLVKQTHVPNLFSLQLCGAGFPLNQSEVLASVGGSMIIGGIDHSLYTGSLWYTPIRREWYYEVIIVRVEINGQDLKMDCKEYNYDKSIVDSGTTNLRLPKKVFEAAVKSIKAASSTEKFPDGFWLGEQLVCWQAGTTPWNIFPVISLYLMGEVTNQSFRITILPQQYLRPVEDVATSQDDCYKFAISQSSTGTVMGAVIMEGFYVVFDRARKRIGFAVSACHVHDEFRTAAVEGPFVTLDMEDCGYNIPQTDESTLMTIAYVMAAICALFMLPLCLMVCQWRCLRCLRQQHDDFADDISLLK

COc1cccc(CNC[C@@H](O)[C@H](Cc2ccccc2)NC(=O)c2cc(C)cc(C(=O)N(C)Cc3nc(C)co3)c2)c1 [inhibitor 3n, N^1-((2S,3R)-3-Hydroxy-4-((3-methoxybenzyl)amino)-1-phenylbutan-2-yl)-N^3,5-dimethyl-N^3-((4-methyloxazol-2-yl)methyl)isophthalamide]
Ki (BACE1 enzyme; Ki (nM) BACE1, Table 3): 25.4 nM
selectivity for BACE1 against BACE2 (BACE1 enzyme; ratio of Ki values): > 75 fold
Ki (BACE2 enzyme): 1920 nM

Reference: PMC6637425 (ChemMedChem, 2019)
